We go through three molecules from patent publication US4289748A, “Ultrasensitive enzymatic radioimmunoassay method” (United States of America, priority 1979, dated 1981).

Assay [1] addresses alkaline phosphatase-IgG (goat anti-rabbit) conjugate (Bos taurus, UniProt P19111). The experiment in a line: Enzyme kinetics of alkaline phosphatase-IgG conjugate with varying AMP concentrations, double reciprocal plot. It counts as biochemical, calf. Particulars: 10 mM diethanolamine buffer pH 9.8, 37° C., 30 minutes, conjugate 2×10^-8 mg/ml; double reciprocal plot (FIG. 4b). The procedure: To determine the enzyme kinetics of alkaline phosphatase-IgG (goat anti-rabbit) conjugate, varying concentrations of adenosine-5'-monophosphate were added to a 10^6 dilution of the enzyme-IgG conjugate. […] Alkaline phosphatase conjugate (2×10^-8 milligrams per milliliter) was added to 10 mM diethanolamine buffer having a pH of 9.8, containing various concentrations of AMP. The reaction mixtures were incubated at 37° C. for 30 minutes. The tritium-labelled adenosine released was determined by column chromatography utilizing DEAE Sephadex by applying an 0.05 milliliter aliquot of the reaction mixture to a column packed with 1.5 milliliters DEAE Sephadex A-25 followed by elutation with a total of 4.5 milliliters of 0.01 M diethanolamine buffer with a pH of 9.8, containing 0.1 mM unlabelled adenosine in two fractions. 20 ml of liquid scintillator, Aquasol®, was added to each fraction and the tritium-labelled adenosine was measured in a liquid scintillation counter. The Km was calculated to be approximately 4 mM by a double reciprocal plot of the Michalis-Menton equation which is shown in FIG. 4b. […] The counting of the actual scintillation counter was adjusted in accordance with standard techniques to yield DPM, disintegrations per minute. Varying concentrations of diethanolomine buffer and MgCl2 were tested. […]

Assay [2] has as its target alkaline phosphatase-IgG conjugate (Bos taurus, UniProt P19111). Put plainly: Effect of reaction products on the alkaline phosphatase-IgG conjugate assay (tritium-AMP hydrolysis). It counts as biochemical, calf. The note with it: 100 picamole tritium-AMP, 10 mM buffer pH 9.0, 37° C. The procedure:
Triplicates of the assay mixture containing 100 picamole of tritium-AMP and 10^-8 milligrams of enzyme conjugate in 0.1 milliliter of 10 mM buffer with a pH of 9.0 were incubated at 37° C. from 0 to 48 hours. Aliquots of 50 microliters of the reaction mixtures were withdrawn for determination of enzyme activity at 0.5, 1.5, 4.5, 24 and 48 hours. The enzyme activity was nearly linear for 90 minutes with approximately 2% of the tritium-AMP hydrolyzed to tritium-adenosine and phosphate. At 24 and 48 hours, the enzyme reaction became slower. Since the tritium-AMP radioindicator was still in excess, the reduction of enzyme activity could be secondary to enzyme degradation and/or product inhibition. To determine the effects of reaction products on the assay, either phosphate (2 or 20 picamoles) or adenosine (20 picamoles) was added to the assay mixtures. 2 and 20 picamole phosphate inhibited alkaline phosphatase activity by 8% and 90% respectively. […] The variation in the triplicate samples was small. For reaction times of less than 5 hours, the variation in either duplicate or triplicate samples was less than 10% of the mean value.

alkaline phosphatase-IgG conjugate, sequence (P19111 20-506 limits assumed): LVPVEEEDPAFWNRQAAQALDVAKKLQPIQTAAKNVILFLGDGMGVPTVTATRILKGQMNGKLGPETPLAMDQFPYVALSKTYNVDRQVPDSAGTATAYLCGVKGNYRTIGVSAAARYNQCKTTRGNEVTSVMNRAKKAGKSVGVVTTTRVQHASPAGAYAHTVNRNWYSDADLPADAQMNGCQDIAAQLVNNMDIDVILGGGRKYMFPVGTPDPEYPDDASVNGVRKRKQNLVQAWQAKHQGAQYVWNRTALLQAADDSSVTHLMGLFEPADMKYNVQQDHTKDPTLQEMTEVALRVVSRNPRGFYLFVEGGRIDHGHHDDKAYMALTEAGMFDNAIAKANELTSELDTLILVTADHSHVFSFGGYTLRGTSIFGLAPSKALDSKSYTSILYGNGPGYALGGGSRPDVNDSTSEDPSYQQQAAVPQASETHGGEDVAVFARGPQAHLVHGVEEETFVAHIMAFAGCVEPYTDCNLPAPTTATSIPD
alkaline phosphatase-IgG (goat anti-rabbit) conjugate, sequence (P19111 20-506 limits assumed): as above

Consider `Nc1ncnc2c1ncn2[C@@H]1O[C@H](COP(=O)(O)O)[C@@H](O)[C@H]1O` [adenosine-5'-monophosphate], for which, in assay [1], the Km is about 4 mM.
As for `Nc1ncnc2c1ncn2[C@@H]1O[C@H](CO)[C@@H](O)[C@H]1O` [adenosine], in assay [2] (20 picamole adenosine added to 0.1 ml assay mixture), the “effect on the activity of the phosphatase” value was “no detectable effect”.
Consider phosphate, for which the “inhibition of alkaline phosphatase activity” value was 8% in assay [2] (2 picamole phosphate added to 0.1 ml assay mixture) and 90% in assay [2] (20 picamole phosphate added to 0.1 ml assay mixture).

As usually defined, the Km is the substrate concentration at which the rate is half of its maximum.
